{"source": "patent US20240344128A1", "about": "“IDENTIFICATION AND ELIMINATION OF DAMAGED AND/OR SENESCENT CELLS” (FUNDACIÓN DEL SECTOR PÜBLICO ESTATAL CENTRO NACIONAL DE …, priority 2017, published 2024)", "key": {"PD-L2 mRNA [1]": {"test_system": "PD-L2 mRNA", "test": "Doxorubicin-induced PD-L2 mRNA in C2C12 cells with enzymatic inhibitors", "assay_type": "cell-based, mouse", "settings": "500 nM doxorubicin, 48 hours", "procedure": "C2C12 cells (FIG. 9) were treated with 500 nM doxorubicin for 48 hours in the presence or absence of the following inhibitors at the indicated concentrations: IKKi (50 μM), PIMi (1 μM), rotenone (1 μM), JAKi (3 μM), rapamycin (50 nM) and metformin (5 mM) or cultured in pyruvate-depleted media (FIG. 9A). In addition, C2C12 cells were incubated for 6 hours in the presence or absence of TLRs agonists (Mouse TLR1-9 Agonist kit. Invivogen): TLR1/2 agonist (Pam3CSK4, 300 ng/ml), TLR2 agonist (HKLM, 10^8 cells/ml), TLR3 agonist (Poly (I:C) HMW and Poly (I:C) LMW, 10 μg/ml), TLR4 agonist (LPS-EK, 10 μg/ml), TRL5 agonist (FLA-ST, 1 μg/ml), TRL6/2 agonist (FSL-1, 100 ng/ml), TRL7 agonist (ssRNA40, 5 μg/ml) and TLR9 agonist (ODN1826, 5 μM). Total RNA was isolated using TRI Reagent (Sigma-Aldrich #T9424) according to the manufacturer's instructions.\n(§1) The isolated RNA was quantified using a nanodrop machine NanoVue (GE Healthcare). cDNA synthesis was performed with 2-7 μg of total RNA using the “iScript Advanced cDNA Synthesis kit” from BIO-RAD (#1725037). Quantitative real-time PCR was carried out with diluted cDNA (1:10) and “GoTaq qPCR Master Mix” (Promega A6002). Reactions were performed in triplicate in a 15 μl volume reaction mix prepared as follow: 7.5 μl 2X GoTaq qPCR Master Mix; 0.6 μl of pre-mixed primers (10 μM forward primer and 10 μM reverse primer); 1.9 μl nuclease-free water and 5 μl template cDNA (previously diluted 1:10).\nThe qRT-PCR reaction was performed on a 7500 Fast Real-Time PCR System (Applied Biosystems) using “MicroAmp Fast Optical 96-well reaction plate with barcode” (Thermo Fisher #4346906) and “MicroAmp Optical adhesive film” (Thermo Fisher #4311971). The reaction consisted in two holding stages (50° C. for 2:00 min and 95° C. for 10:00 min) and 40 amplification reactions (95° C. for 00:15 min/60° C. for 01:00 min/72° C. for 00:30 min) followed by a Melt Curve Stage.\nThe Ct values of the genes of interest were averaged and normalized to the housekeeping gene β-actin. For each cell line and condition at least two independent experiments were performed."}, "PD-L2 mRNA [2]": {"test_system": "PD-L2 mRNA", "test": "PD-L2 mRNA in mouse melanoma cell lines B16F1 and B16F10", "assay_type": "cell-based", "settings": "B16F1 and B16F10 cells; data not shown"}, "lungs": {"test_system": "lungs", "test": "Bleomycin-induced lung fibrosis in C57BL6 mice", "assay_type": "in vivo, mouse", "settings": "single intratracheal dose, 14 days", "procedure": "SA-β galactosidase activity was assessed in whole mount lungs (FIG. 5A) and xenografts (FIG. 6B) using the Senescence β-Galactosidase Staining Kit (Cell Signaling #9860). Lungs were fixed for 45 minutes with a solution containing 2% formaldehyde and 0.2% glutaraldehyde in PBS for 45 minutes and washed three times with PBS. Fixed tissues were subsequently stained overnight (16 hours) with X-gal staining solution (adjusted to pH 6.0).\nFor gene expression analysis lungs were isolated and embedded in optimal cutting temperature (OCT) compound (Leica Biosystems). To obtain total RNA of OCT embedded tissue samples, 10 cryostat sections of 10 μm thickness were cut and excess OCT were removed. Cryosections were lysed in TRI Reagent (Sigma-Aldrich #T9424), pooled and processed according to manufacturer's instructions. cDNA was synthesized using 2 μg of total RNA. cDNA synthesis and RT-qPCR were performed as previously described. The Ct values of the genes of interest were averaged and normalized to the housekeeping gene Gapdh.\nLung fibrosis was induced in C57BL6 mice (ENVIGO) by intratracheal delivery of a single dose of bleomycin (1.5 U/kg) or vehicle (PBS). 14 days after intratracheal injection, lung samples of vehicle (control) or bleomycin (fibrotic)-treated mice were collected for the analysis of SA-β gal activity and gene expression."}, "PD-L2 mRNA [3]": {"test_system": "PD-L2 mRNA", "test": "PD-L1 and PD-L2 mRNA by quantitative RT-PCR in human tumor cell lines", "assay_type": "cell-based", "settings": "SK-Mel-103 cells, 7 days", "procedure": "Treated cells were not further split and their media was not changed for the duration of the treatment. Control cells were split every 3-4 days as previously described. One week after the start of the treatment, total RNA was isolated from control and treated cells with TRI Reagent (Sigma-Aldrich #T9424) following the manufacturer instructions. The isolated RNA was quantified using a nanodrop machine NanoVue (GE Healthcare). cDNA synthesis was performed with 2-7 μg of total RNA using the “iScript Advanced cDNA Synthesis kit” from BIO-RAD (#1725037). Quantitative real-time PCR was carried out with diluted cDNA (1:10) and “GoTaq qPCR Master Mix” (Promega A6002). Reactions were performed in triplicate in a 15 μl volume reaction mix prepared as follow: 7.5 μl 2X GoTaq qPCR Master Mix; 0.6 μl of pre-mixed primers (10 μM forward primer and 10 μM reverse primer); 1.9 μl nuclease-free water and 5 μl template cDNA (previously diluted 1:10). The qRT-PCR reaction was performed on a 7500 Fast Real-Time PCR System (Applied Biosystems) using “MicroAmp Fast Optical 96-well reaction plate with barcode” (Thermo Fisher #4346906) and “MicroAmp Optical adhesive film” (Thermo Fisher #4311971). […]"}, "[4]": {"test_system": "SK-Mel-103, UT-SCC-38 and UT-SCC-42B cells", "test": "SA-β gal / senescent response in human tumor cell lines", "assay_type": "cell-based", "settings": "SK-Mel-103 cells, 7 days", "procedure": "SK-Mel-103, UT-SCC-38 and UT-SCC-42B the cell lines were maintained in DMEM (Gibco) supplemented with 10% fetal bovine serum (Gibco) with antimycotic-antibiotic (Gibco), and incubated in 20% O2 sand 5% CO2 at 37° C. SK-Mel-103 and UT-SCC-42B cells were split 1:10 every 3-4 days. UT-SCC-38 were split 1:3 every 3-4 days.\nEight days before the assay 20.000 SK-Mel-103 cells and 40.000 UT-SCC-38 and UT-SCC-42B cells were seeded into 6 well tissue culture plates (Falcon). The next day cells were treated with 2 μM Palbociclib. SK-Mel-103 cells were also treated with 10 nM Doxorubicin, 1 μM Nutlin or 6×10^−3 units/ml Bleomycin. All the cells were incubated in the presence of the senescence-inducing agents for at least 7 days without changing the media. Control cells were seeded in 6 well plates 24-48 hours prior the SA-β gal assay.\nSA-β galactosidase activity was assessed with the β-Galactosidase Staining Kit from Cell Signaling (#9860) following the manufactured instructions with one single variation: the pH of the “Staining Solution” (supplemented with buffers A and B and X-gal) was carefully adjusted to 6."}, "PD-L2 mRNA [5]": {"test_system": "PD-L2 mRNA", "test": "PD-L1 and PD-L2 mRNA by quantitative RT-PCR in mouse cell lines after 48 hours of genotoxic drugs", "assay_type": "cell-based", "settings": "C2C12, HcMel3 and HcMel13 cells", "procedure": "C2C12, HcMel3 and HcMel12 (FIG. 3) were treated with 12×10^−3 units/ml bleomycin or doxorubicin 500 nM (C2C12) or 167 nM (HcMel3 and HcMel12) for 48 hours. Total RNA was isolated using TRI Reagent (Sigma-Aldrich #T9424) according to the manufacturer's instructions.\nas §1\nThe qRT-PCR reaction was performed on a 7500 Fast Real-Time PCR System (Applied Biosystems) using “MicroAmp Fast Optical 96-well reaction plate with barcode” (Thermo Fisher #4346906) and “MicroAmp Optical adhesive film” (Thermo Fisher #4311971). The reaction consisted in two holding stages (50° C. for 2:00 min and 95° C. for 10:00 min) and 40 amplification reactions (95° C. for 00:15 min/60° C. for 01:00 min/72° C. for 00:30 min) followed by a Melt Curve Stage. […]"}, "SK-Mel-103 cells": {"test_system": "SK-Mel-103 cells", "test": "53BP1 immunofluorescence (DNA double-strand breaks)", "assay_type": "cell-based, human", "settings": "7 days", "procedure": "SK-Mel-103 cells were seeded at 50% confluency on round 12 mm diameter coverslips (Marienfeld #0111520) previously placed inside 24 well plates. The following day, cells were treated with the senescence-inducing agents: 2 μM Palbociclib, […], 1 μM Nutlin and 6×10^−3 units/ml Bleomycin. Treated cells were not further split and their media was not changed for the duration of the treatment (7 days). Control cells were seeded similarly to treated, cells 24-48 hours prior the beginning of the procedure. Seven days after addition of the senescence-inducing agents, control and treated cells were washed with 1×PBS and Fixed on 2% paraformaldehyde-PBS for 10 minutes. The cells were then permeabilized with 0.25% Triton-PBS for 5 minutes, washed twice with 1×PBS and blocked with 5% BSA-PBS for 30 minutes. Next, the cells were incubated for 30 minutes with anti-53BP1 antibody (Abcam #ab172580) previously diluted 1:100 in blocking buffer (5% BSA-PBS), washed 3 times for 10 minutes with 1X PBS and incubated in the dark for 30 additional minutes with the secondary antibody: goat anti-rabbit Alexa Fluor 546 (ThermoFisher #A-11010) diluted 1:400 in blocking buffer. Finally, the cells were washed again 3 times for 10 minutes with 1×PBS and incubated with DAPI (Sigma #D9542) 300 nM in 1×PBS for 10 minutes. All the incubations and washed were performed at room temperature in 24 well plates. […]"}, "senescent cells": {"test_system": "senescent cells", "settings": "cited from earlier work; for elimination of senescent cells: literature reports"}}, "data": [{"compound": "Cc1ccc(S(=O)(=O)/C=C/C#N)cc1", "note": "[NFkB inhibitor, BAY 11-7082]", "values": [{"measurement": "PD-L2 induction", "setting": "PD-L2 mRNA [1]", "value": "prevented PD-L2 induction"}]}, {"compound": "Bleomycin", "values": [{"measurement": "PD-L2 mRNA", "setting": "PD-L2 mRNA [2]", "value": "PD-L2 mRNA up-regulation"}, {"measurement": "senescent cells (SA-β galactosidase positive staining) in whole fibrotic lungs", "setting": "lungs", "value": "accumulation of senescent cells"}, {"measurement": "PD-L2 and PD-L1 mRNA in fibrotic organs", "setting": "lungs; lung", "value": "significant and specific up-regulation of PD-L2 mRNA, but not of PD-L1 mRNA"}, {"measurement": "PD-L2 mRNA levels", "setting": "PD-L2 mRNA [3]", "value": "had a similar effect on PD-L2 mRNA levels"}, {"measurement": "induction of senescence", "setting": "[4]", "value": "induce senescence in the SK-Mel-103 cells"}, {"measurement": "PD-L2 mRNA", "setting": "PD-L2 mRNA [5]", "value": "dramatic increase in PD-L2 mRNA"}, {"measurement": "DNA damage (53BP1 foci)", "setting": "SK-Mel-103 cells", "value": "exhibited nuclear 53-BP1 foci"}]}, {"compound": "Fc1cc(-c2cccc3ncc(-c4cnn(C5CCNCC5)c4)nc23)cc(F)c1CN1CCOCC1", "note": "[JAK inhibitor, NVP-BSK805]", "values": [{"measurement": "PD-L2 induction", "setting": "PD-L2 mRNA [1]", "value": "prevented PD-L2 induction"}]}, {"compound": "O=c1c(O)c(-c2ccc(O)c(O)c2)oc2cc(O)cc(O)c12", "note": "[Quercetin]", "values": [{"measurement": "number of damaged and/or senescent cells", "setting": "senescent cells; Dasatinib and Quercetin used in combination, aged, progeroid and irradiation-exposed mice", "value": "reduced the number of damaged and/or senescent cells"}]}, {"compound": "Nutlin", "values": [{"measurement": "PD-L2 mRNA levels", "setting": "PD-L2 mRNA [3]", "value": "had a similar effect on PD-L2 mRNA levels"}, {"measurement": "induction of senescence", "setting": "[4]", "value": "induce senescence in the SK-Mel-103 cells"}, {"measurement": "DNA damage (53BP1 foci)", "setting": "SK-Mel-103 cells", "value": "absence of 53BP1 foci in the chromatin"}]}, {"compound": "COc1cccc2c1C(=O)c1c(O)c3c(c(O)c1C2=O)C[C@@](O)(C(=O)CO)C[C@@H]3O[C@H]1C[C@H](N)[C@H](O)[C@H](C)O1", "note": "[doxorubicin, Doxorubicin]", "values": [{"measurement": "PD-L2 mRNA", "setting": "PD-L2 mRNA [5]", "value": "dramatic increase in PD-L2 mRNA"}]}, {"compound": "CC1(C)CCC(c2ccc(Cl)cc2)=C(CN2CCN(c3ccc(C(=O)NS(=O)(=O)c4ccc(N[C@H](CCN5CCOCC5)CSc5ccccc5)c(S(=O)(=O)C(F)(F)F)c4)cc3)CC2)C1", "note": "[Navitoclax]", "values": [{"measurement": "elimination of senescent cells", "setting": "senescent cells", "value": "efficiently eliminate senescent cells in vitro and in vivo"}]}, {"compound": "C=C(C)[C@H]1Cc2c(ccc3c2O[C@@H]2COc4cc(OC)c(OC)cc4[C@@H]2C3=O)O1", "note": "[rotenone]", "values": [{"measurement": "PD-L2 induction", "setting": "PD-L2 mRNA [1]", "value": "prevented PD-L2 induction"}]}, {"compound": "CN(C)CC[C@H](CSc1ccccc1)Nc1ccc(S(=O)(=O)NC(=O)c2ccc(N3CCN(Cc4ccccc4-c4ccc(Cl)cc4)CC3)cc2)cc1[N+](=O)[O-]", "note": "[ABT-737]", "values": [{"measurement": "elimination of senescent cells", "setting": "senescent cells", "value": "selectively eliminate senescent cells"}]}, {"compound": "CN(C)C(=N)N=C(N)N", "note": "[metformin]", "values": [{"measurement": "PD-L2 induction", "setting": "PD-L2 mRNA [1]", "value": "prevented PD-L2 induction"}]}]}
